Results taken from ChEMBL document CHEMBL5465560, “Selectivity Literature for EUbOPEN Chemogenomic Library” (2024).
Values belong to the compound of their own block, whether it stands above or below them.

Legend:
[1] = target: Homeodomain-interacting protein kinase 2 (Homo sapiens, UniProt Q9H2X6); conditions: at 10 µM
[2] = target: Tyrosine-protein kinase JAK2 (Homo sapiens, UniProt O60674); assay: Selectivity interaction (Enyzmatic assay) EUB0000601a JAK2
[3] = target: T1, Serine/threonine-protein kinase ULK2 (Homo sapiens) (UniProt Q8IYT8); assay: Selectivity interaction (KinomeScan (DiscoverX)) EUB0001049a ULK2; conditions: at 1 µM
T1 sequence (whole entry): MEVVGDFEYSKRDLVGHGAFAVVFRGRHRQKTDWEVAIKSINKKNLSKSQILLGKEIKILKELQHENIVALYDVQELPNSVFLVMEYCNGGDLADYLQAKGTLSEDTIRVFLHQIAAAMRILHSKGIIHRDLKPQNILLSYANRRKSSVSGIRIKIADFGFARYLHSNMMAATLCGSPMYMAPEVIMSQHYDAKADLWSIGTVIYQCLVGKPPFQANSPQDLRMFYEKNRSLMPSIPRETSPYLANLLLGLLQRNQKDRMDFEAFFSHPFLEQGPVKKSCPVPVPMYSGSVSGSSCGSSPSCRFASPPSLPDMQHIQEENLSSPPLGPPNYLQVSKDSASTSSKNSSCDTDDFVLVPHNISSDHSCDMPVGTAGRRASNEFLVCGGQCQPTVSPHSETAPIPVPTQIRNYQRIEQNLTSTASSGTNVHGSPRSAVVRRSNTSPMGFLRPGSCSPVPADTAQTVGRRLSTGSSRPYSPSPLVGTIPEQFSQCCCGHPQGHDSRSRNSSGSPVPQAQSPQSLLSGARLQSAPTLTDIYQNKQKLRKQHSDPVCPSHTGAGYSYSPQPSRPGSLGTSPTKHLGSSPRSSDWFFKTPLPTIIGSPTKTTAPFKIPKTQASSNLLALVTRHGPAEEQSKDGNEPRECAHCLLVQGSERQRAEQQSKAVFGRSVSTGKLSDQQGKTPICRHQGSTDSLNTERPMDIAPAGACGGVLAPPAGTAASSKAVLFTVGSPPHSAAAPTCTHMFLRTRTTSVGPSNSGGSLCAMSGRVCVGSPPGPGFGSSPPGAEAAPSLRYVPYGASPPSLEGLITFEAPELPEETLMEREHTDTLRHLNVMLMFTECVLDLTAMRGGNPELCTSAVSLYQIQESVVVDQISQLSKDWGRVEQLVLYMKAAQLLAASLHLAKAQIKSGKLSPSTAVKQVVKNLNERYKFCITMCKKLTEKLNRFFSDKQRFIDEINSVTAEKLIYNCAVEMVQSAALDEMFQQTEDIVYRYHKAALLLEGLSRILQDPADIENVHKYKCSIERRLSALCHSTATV

[4] = target: Serine/threonine-protein kinase MRCK gamma (Homo sapiens) (UniProt Q6DT37); assay: Selectivity interaction (KinomeScan (DiscoverX)) EUB0000655a CDC42BPG; conditions: at 10 µM
[5] = target: Ribosomal protein S6 kinase alpha-3 (Homo sapiens, UniProt P51812); assay: Selectivity interaction (ActivX KiNativ screen (ex vivo kinase selectivity in human PBMCs)) EUB0001619a RPS6KA3; assay type: cell-based; conditions: PBMC, at 1 µM
[6] = target: Casein kinase I isoform gamma-3 (Homo sapiens) (UniProt Q9Y6M4); assay: Selectivity interaction (KinomeScan (DiscoverX)) EUB0000607a CSNK1G3; conditions: at 10 µM
[7] = target: Cyclin-dependent kinase 11B (Homo sapiens) (UniProt P21127); assay: Selectivity interaction (KinomeScan (DiscoverX)) EUB0000607a CDK11B; conditions: at 10 µM
[8] = target: T2, Mitogen-activated protein kinase kinase kinase 6 (Homo sapiens) (UniProt O95382); assay: Selectivity interaction (KinomeScan (DiscoverX)) EUB0000607a MAP3K6; conditions: at 10 µM
T2 sequence (whole entry): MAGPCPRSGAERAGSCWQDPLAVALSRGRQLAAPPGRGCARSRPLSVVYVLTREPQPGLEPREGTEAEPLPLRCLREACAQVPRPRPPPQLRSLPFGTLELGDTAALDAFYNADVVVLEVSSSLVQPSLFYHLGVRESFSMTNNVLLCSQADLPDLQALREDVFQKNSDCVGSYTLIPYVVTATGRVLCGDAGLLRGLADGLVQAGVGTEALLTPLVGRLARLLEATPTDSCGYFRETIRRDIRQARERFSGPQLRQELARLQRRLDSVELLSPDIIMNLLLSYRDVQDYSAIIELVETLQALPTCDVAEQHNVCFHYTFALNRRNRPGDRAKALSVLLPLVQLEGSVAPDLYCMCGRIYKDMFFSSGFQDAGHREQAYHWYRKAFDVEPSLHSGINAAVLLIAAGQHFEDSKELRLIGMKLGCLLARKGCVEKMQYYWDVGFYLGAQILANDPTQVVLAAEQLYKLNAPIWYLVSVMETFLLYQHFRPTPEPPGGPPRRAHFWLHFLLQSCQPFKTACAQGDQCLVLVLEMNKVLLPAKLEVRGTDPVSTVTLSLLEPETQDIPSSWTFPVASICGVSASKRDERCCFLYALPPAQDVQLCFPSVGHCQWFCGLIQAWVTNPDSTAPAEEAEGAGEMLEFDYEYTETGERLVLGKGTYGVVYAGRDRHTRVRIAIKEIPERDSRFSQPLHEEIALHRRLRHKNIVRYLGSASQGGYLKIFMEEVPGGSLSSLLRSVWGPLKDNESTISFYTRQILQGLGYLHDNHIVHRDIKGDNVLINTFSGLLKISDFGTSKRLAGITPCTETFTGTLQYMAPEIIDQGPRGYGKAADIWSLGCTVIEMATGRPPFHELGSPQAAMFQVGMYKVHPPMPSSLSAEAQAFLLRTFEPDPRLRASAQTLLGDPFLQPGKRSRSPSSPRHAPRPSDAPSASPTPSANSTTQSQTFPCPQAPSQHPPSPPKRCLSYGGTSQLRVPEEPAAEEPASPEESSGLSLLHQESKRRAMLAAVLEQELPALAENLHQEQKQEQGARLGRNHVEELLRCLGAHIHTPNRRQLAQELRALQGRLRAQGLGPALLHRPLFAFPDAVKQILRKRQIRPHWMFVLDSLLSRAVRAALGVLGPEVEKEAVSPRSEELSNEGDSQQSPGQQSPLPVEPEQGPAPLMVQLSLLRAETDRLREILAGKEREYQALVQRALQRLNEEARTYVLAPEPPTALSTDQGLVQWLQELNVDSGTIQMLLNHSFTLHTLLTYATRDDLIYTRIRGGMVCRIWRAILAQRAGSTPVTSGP

[9] = target: 1-phosphatidylinositol 3-phosphate 5-kinase (Homo sapiens) (UniProt Q9Y2I7); assay: Selectivity interaction (Kinase panel (KiNativ target engagement assay in Jurkat cells)) EUB0001635a PIKFYVE; assay type: cell-based; conditions: Selectivity number of off-targets 0.0, Selectivity number of targets 233.0, Source Knowledge https://www.sciencedirect.com/science/article/pii/S2451945619300674?via%3Dihub, at 1 µM
[10] = target: Serine/threonine-protein kinase OSR1 (Homo sapiens) (UniProt O95747); assay: Selectivity interaction (KinomeScan (DiscoverX)) EUB0000666a OXSR1; conditions: at 10 µM
Chain of Serine/threonine-protein kinase OSR1 (Homo sapiens) (O95747 2-527 limits assumed): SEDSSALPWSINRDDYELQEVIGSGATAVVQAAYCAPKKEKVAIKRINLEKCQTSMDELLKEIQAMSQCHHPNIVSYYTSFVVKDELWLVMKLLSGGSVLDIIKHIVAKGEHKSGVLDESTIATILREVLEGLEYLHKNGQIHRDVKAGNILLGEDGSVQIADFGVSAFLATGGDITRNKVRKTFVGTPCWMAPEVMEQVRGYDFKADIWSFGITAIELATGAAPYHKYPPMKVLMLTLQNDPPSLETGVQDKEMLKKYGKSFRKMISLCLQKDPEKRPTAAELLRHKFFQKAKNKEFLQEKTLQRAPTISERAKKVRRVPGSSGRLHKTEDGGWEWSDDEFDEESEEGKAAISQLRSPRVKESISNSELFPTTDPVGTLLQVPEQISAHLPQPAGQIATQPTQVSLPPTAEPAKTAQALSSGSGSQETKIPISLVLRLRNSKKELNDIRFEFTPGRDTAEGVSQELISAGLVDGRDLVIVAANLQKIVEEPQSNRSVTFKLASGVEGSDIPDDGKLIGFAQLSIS

Chain of Ribosomal protein S6 kinase alpha-3 (P51812 whole entry, canonical isoform): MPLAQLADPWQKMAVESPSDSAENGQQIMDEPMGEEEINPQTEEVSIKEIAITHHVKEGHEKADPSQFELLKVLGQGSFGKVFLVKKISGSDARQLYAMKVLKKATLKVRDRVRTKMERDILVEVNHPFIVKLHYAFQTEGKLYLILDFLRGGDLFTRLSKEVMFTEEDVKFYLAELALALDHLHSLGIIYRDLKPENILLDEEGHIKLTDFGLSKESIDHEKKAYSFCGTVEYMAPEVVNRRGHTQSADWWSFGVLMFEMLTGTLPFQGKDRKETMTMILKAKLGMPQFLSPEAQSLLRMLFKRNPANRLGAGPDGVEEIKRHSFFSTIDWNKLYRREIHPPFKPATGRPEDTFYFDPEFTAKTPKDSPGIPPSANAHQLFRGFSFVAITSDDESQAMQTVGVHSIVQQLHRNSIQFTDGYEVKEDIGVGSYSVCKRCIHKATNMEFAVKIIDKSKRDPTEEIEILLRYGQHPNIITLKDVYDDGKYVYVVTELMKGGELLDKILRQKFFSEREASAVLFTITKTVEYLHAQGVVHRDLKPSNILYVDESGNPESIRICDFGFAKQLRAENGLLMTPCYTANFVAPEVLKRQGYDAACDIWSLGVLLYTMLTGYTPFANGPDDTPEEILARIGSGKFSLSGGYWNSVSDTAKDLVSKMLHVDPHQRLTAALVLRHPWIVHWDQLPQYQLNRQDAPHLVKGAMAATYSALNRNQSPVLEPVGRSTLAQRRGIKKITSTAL
Chain of Cyclin-dependent kinase 11B (Homo sapiens) (P21127 whole entry): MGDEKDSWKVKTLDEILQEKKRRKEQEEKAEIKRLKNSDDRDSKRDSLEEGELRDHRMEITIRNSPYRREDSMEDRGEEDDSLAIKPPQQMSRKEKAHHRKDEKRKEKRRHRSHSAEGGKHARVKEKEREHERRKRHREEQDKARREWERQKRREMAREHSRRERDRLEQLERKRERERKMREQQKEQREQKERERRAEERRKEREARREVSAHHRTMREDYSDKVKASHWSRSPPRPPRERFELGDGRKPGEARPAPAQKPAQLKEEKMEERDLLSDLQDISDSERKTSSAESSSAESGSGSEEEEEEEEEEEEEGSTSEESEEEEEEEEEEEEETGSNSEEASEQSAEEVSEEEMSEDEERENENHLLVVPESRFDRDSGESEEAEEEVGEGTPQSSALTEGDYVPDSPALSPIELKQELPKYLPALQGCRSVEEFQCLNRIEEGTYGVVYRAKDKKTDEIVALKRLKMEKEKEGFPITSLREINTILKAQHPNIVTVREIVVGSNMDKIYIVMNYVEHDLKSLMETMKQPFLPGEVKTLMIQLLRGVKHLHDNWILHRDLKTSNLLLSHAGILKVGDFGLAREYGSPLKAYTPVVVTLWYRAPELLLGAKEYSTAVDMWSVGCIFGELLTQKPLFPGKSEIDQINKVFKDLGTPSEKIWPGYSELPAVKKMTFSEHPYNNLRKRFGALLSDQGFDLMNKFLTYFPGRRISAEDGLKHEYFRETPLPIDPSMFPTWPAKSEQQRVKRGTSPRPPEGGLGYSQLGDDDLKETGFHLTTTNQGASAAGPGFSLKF
Chain of 1-phosphatidylinositol 3-phosphate 5-kinase (Homo sapiens) (Q9Y2I7 whole entry): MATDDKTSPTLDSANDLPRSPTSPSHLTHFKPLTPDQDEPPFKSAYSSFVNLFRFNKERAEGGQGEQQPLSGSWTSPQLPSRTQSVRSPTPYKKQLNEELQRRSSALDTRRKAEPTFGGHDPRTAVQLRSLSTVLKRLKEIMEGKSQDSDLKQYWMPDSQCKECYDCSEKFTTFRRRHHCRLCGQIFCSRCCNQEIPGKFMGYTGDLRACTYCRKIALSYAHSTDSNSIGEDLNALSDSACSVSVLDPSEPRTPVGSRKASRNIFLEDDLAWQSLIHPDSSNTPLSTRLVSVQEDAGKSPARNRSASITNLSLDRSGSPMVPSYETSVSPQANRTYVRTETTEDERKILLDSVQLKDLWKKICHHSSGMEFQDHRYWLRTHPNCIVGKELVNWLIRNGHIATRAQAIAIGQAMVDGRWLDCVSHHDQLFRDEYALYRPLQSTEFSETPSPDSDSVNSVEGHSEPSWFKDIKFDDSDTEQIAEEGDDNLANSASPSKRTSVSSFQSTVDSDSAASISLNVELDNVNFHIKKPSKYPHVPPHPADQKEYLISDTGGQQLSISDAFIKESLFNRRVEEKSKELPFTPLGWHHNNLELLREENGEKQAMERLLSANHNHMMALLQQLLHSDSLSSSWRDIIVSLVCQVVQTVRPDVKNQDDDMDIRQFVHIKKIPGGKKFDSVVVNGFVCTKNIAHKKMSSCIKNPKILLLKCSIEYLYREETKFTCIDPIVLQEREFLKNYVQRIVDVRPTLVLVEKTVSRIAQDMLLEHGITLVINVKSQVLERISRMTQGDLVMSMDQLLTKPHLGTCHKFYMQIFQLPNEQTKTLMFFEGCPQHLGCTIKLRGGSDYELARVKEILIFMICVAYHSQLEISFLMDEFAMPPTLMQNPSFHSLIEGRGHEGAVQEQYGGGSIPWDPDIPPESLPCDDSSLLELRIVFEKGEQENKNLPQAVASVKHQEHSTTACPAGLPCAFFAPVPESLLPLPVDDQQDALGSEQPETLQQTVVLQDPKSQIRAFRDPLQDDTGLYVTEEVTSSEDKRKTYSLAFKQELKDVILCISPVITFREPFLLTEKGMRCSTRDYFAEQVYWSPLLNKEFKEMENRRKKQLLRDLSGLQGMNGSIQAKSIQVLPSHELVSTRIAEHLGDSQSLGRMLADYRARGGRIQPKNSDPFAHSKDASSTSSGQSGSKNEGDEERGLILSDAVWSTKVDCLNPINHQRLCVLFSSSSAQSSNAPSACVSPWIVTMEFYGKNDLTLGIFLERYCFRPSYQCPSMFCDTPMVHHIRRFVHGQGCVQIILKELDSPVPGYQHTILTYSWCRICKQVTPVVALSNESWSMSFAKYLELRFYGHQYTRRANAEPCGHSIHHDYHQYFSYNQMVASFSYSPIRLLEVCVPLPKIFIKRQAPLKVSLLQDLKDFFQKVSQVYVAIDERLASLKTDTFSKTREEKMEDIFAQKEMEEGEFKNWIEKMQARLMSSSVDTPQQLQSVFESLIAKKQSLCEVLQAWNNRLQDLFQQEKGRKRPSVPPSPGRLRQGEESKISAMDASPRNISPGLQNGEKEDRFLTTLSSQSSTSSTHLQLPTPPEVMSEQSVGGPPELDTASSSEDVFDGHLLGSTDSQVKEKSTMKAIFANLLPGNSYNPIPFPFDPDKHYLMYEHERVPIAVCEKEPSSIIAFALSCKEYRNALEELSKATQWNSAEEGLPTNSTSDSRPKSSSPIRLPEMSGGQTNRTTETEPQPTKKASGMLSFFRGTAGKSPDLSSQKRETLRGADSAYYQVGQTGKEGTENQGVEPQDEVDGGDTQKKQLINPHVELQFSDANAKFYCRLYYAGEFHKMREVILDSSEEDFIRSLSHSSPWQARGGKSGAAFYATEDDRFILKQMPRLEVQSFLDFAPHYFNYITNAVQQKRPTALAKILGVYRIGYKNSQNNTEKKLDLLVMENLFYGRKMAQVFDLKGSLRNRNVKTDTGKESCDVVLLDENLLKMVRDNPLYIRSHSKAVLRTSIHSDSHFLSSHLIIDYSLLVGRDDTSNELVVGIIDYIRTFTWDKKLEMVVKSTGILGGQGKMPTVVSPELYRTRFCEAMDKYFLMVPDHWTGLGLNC
Chain of Casein kinase I isoform gamma-3 (Homo sapiens) (Q9Y6M4 whole entry, looked up, canonical isoform): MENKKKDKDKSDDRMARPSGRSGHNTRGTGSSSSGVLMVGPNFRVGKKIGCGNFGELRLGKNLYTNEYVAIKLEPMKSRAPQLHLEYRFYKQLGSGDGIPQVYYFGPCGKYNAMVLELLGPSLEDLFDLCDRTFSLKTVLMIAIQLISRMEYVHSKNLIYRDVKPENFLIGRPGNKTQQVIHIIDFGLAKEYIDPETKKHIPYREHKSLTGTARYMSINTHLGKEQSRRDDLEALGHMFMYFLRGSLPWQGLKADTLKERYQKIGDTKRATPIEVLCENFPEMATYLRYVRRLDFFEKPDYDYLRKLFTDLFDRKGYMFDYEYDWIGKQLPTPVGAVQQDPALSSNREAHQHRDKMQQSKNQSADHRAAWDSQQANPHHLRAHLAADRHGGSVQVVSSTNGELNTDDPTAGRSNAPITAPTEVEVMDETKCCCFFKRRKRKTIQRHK

Structure (SMILES): Cc1cc([C@@H](C)Nc2ccccc2C(=O)O)c2nc(N3CCOCC3)cc(=O)n2c1 [AZD-6482]
- % of control [1]: 79%

- IC50 [2]: > 16 µM
Structure (SMILES): CCc1cc(Nc2nccc(-c3c(-c4ccc(OC)c(C(=O)Nc5c(F)cccc5F)c4)nc4ccccn34)n2)c(OC)cc1N1CCC(N2CCN(S(C)(=O)=O)CC2)CC1

Structure (SMILES): COc1cc(Nc2nc(C)cc(-c3cnn4nc(OC)ccc34)n2)cc(C(F)(F)F)c1
- % of control [3]: 92%

Structure (SMILES): CN(C)CCOc1ccc(-c2nc(-c3ccncc3)c(-c3ccc4c(c3)CC/C4=N\O)[nH]2)cc1
- % of control [4]: 32%

Structure (SMILES): N#Cc1cccc(-c2c[nH]c3ncnc(N4CCOCC4)c23)c1
- % of inhibition [5]: 13%

Structure (SMILES): CNC(=O)Nc1ccc(-c2nc(N3CC4CCC(C3)O4)c3cnn(C4CCC5(CC4)OCCO5)c3n2)cc1
- % of control [6]: 48%
- % of control [7]: 100%
- % of control [8]: 80%

Structure (SMILES): C=CC(=O)Nc1ccc(C(=O)Nc2[nH]nc3c2CN(C(=O)N[C@H](CN(C)C)c2ccccc2)C3(C)C)cc1
- % of engagement [9]: -3.5%

Structure (SMILES): O=C(NOC[C@H](O)CO)c1ccc(F)c(F)c1Nc1ccc(I)cc1F
- % of control [10]: 100%
